# Source: article PMC8268581, “Identification of 3,4-Dihydro-2H,6H-pyrimido[1,2-c][1,3]benzothiazin-6-imine Derivatives as Novel Selective Inhibitors of Plasmodium falciparum Dihydroorotate Dehydrogenase” (International Journal of Molecular Sciences, 2021)
# How the values were obtained:
# [1] = target: mammalian mitochondrial complexes II–III (Bos taurus, UniProt P00157+P35720+Q3T189+Q95123); assay: succinate-cytochrome c reductase (complexes II–III) activity assay; type: biochemical; settings: bovine heart mitochondria, range tested 0.0007 to 22.7 µM; read-out: IC50 Mammalian Mitochondrial CII–III
# Protocol: (§1) Bovine heart mitochondria were prepared as previously described. The NADH-cytochrome c reductase (complexes I–III) and succinate-cytochrome c reductase (complexes II–III) activities were assayed in 384-well plates following an established protocol with small modifications. Complex I–III activity was assayed in a reaction mix containing 50 mM phosphate buffer pH 7.4, 2 mM KCN, 200 µM cytochrome c (cytochrome c from horse heart, Nacalai tesque), and 15 µg/mL mitochondria. Plates containing 1 µL serial dilutions of PfDHODH inhibitors were prepared and mixed with 38 µL of the reaction mix, as described above. The reaction was started by the addition of 5 µL of 2.6 mM NADH, and the assay was performed as described for PfDHODH, but at 550 nm and with 15 min of incubation. Complex II–III activity was assayed similarly to complex I–III activity but with 100 µM cytochrome c and 25 µg/mL mitochondria, and the reaction was started by 10 mM succinate. For both assays, DMSO and 5 µM ascochlorin were used as negative and positive controls, respectively. Assays were performed in triplicate.
# HsDHODH = target: T1, HsDHODH (Homo sapiens, UniProt Q02127); assay: HsDHODH counter-assay; type: biochemical; settings: purified recombinant HsDHODH, tested at 4.5 µM; read-out: IC50 DHODH Hs
# T1 construct: made in house
# T1 sequence (Q02127 whole entry): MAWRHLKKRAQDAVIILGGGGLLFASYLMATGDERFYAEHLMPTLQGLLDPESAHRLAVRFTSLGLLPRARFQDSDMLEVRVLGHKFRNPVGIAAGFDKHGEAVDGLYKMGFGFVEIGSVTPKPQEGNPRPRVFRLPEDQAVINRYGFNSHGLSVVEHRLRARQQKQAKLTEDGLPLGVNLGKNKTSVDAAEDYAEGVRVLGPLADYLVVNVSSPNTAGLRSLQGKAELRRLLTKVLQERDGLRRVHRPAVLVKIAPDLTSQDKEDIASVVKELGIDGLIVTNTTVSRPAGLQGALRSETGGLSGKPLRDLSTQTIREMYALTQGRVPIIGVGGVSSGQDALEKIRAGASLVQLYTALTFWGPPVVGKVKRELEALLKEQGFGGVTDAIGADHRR
# Protocol: Selected hit compounds from PfDHODH screening were tested for potential inhibition against HsDHODH at 4.5 µM. The HsDHODH used in this study was purified as previously reported. The HsDHODH assay was performed similarly to that for PfDHODH, but in an assay mix consisting of 50 mM Tris-HCl pH 8.0, 0.1% (v/v) Triton X-100, 2 mM potassium cyanide (KCN, Wako), 60 µM dUQ, and 120 µM DCIP, with the reaction started by the addition of 200 µM L-DHO (final concentration) in triplicate. For this assay, DMSO was used as a negative control and 10 µM of lapachol was used as a positive control (100% inhibition). The relative inhibition was calculated as described above.
# [2] = Cytotoxicity assay, PANC-1 (Cell Counting Kit-8); type: cell-based; settings: PANC-1 human pancreatic carcinoma cells
# Protocol: (§2) Human dermal fibroblast cells (HDF, Zenbio, Inc., Durham, NC, USA) were cultured in Dulbecco’s Modified Eagle Medium/Nutrient Mixture F-12 medium (DMEM/F12, Gibco), human pancreatic carcinoma cells (PANC-1, DS Pharma Biomedical, Co., Ltd.) were cultured in DMEM (Gibco), and human colorectal adenocarcinoma cells (DLD-1, Taiho Pharmaceutical Company) were cultured in RPMI-1640 medium (FUJIFILM Wako Pure Chemicals). The culture mediums were supplemented with 10% (v/v) heat-inactivated fetal bovine serum (Gibco) and the cells were maintained at 37 °C under 5% CO2.
# (§3) HDF, PANC-1, and DLD-1 were seeded at 2.5 × 10^4 cells/well on a 96-well plate and incubated at 37 °C under 5% CO2 overnight. The cells were then washed with PBS and the medium was replaced with 99 µL of fresh media. Then, 1 µL of the compounds or DMSO was added to the respective wells. As controls, wells containing 1% (v/v) DMSO in column 1 and wells containing only the culture medium in column 12 were used as the negative and positive controls, respectively. After 48 h of incubation, the cells were washed with PBS, and 99 µL of fresh media was replaced, followed by the addition of 10 µL of Cell Counting Kit-8 (Dojindo) to each well. After 3 h of incubation, the absorbance was measured at 450 nm using a SpectraMax®® Paradigm®® Multi-Mode microplate Reader. The calculation of cell viability in the test well was based on the absorbance of control wells according to the manufacturer’s protocol. The mean of quadruplet values was used to calculate the CC50 using GraphPad Prism 8.0 software.
# [3] = target: mammalian mitochondrial complexes I–III (Bos taurus, UniProt P00157+P03887+P17694+P42026); assay: NADH-cytochrome c reductase (complexes I–III) activity assay; type: biochemical; settings: bovine heart mitochondria, range tested 0.0007 to 22.7 µM; read-out: IC50 Mammalian Mitochondrial CI–III
# Protocol: as §1
# PfDHODH = target: T2, PfDHODH (Plasmodium falciparum, UniProt Q08210); assay: PfDHODH inhibition assay (DCIP end-point, 384-well); type: biochemical; settings: recombinant tag-free PfDHODH, 20 min, serial dilutions 0.0007-22.7 µM; read-out: IC50 DHODH Pf
# T2 construct: encoding amino acid residues 158 to 569 fused to a His6-SUMO tag in its N-terminus; His6-SUMO (N, cleaved yes); made in house; host or cells: E. coli BL21 Star (DE3), pETSUMO/PfDHODH
# T2 sequence (Q08210 158-569): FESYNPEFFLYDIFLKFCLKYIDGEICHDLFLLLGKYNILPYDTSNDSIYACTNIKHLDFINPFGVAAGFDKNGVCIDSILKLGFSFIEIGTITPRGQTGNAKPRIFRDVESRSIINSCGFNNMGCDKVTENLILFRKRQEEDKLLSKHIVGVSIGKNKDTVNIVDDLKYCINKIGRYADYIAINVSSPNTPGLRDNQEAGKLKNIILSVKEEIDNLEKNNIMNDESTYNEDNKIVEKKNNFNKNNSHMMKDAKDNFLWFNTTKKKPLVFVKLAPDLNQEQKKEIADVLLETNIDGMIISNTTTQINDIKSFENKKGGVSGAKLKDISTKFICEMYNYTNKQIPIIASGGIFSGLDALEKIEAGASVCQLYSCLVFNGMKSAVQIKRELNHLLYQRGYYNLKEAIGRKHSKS
# Protocol: The screening of 40,400 compounds was conducted in 384-well plates by adapting the end-point assay reported before. First, 1 µL of 200 µM compound was transferred into 384-well plates using a Benchtop Multi-Pipetter EDR-384SR (Biotech Co., Ltd., Tokyo, Japan). […] Next, 38 µL of assay mix (100 mM HEPES-NaOH pH 7.5, 5% (v/v) glycerol, 150 mM NaCl, 0.05% (v/v) Triton X-100, 15 µM decylubiquinone (dUQ, Sigma), 120 µM 2,6-dichlorophenolindophenol (DCIP, Sigma), and 20 nM PfDHODH) were dispensed into all wells and mixed at 600 rpm for 1 min by a MixMate®® (Eppendorf). The reaction was started by the addition of 5 µL of 1.8 mM L-DHO (Sigma) as the substrate and mixed as described above for 20 s. The absorbance at 600 nm was recorded using a SpectraMax®® Paradigm®® Multi-Mode Microplate Reader (Molecular Devices) before (t0) and after 20 min (t20) incubation at room temperature. The readings at t0 were subtracted from t20, and PfDHODH inhibition was calculated as the inhibition relative to the negative and positive controls in a single-point assay. Hits were defined as compounds inhibiting more than 50% of PfDHODH activity at 4.5 µM. The quality of the screening system was evaluated by calculating statistical parameters: Z′-factor, S/N, S/B, SW, and CV, as previously reported. The IC50 values of the hit compounds were determined using the same assay system containing serial dilutions of each compound in triplicates (22.7, 6.8, 2.27, 0.68, 0.227, 0.068, 0.023, 0.007, 0.002, 0.0007 µM) using GraphPad Prism 8.0 software (GraphPad Software Inc., San Diego, CA, USA).
# [4] = Cytotoxicity assay, HDF (Cell Counting Kit-8); type: cell-based; settings: human dermal fibroblast (HDF) cells, normal human dermal fibroblasts
# Protocol: as §2, §3
# [5] = Cytotoxicity assay, DLD-1 (Cell Counting Kit-8); type: cell-based; settings: DLD-1 human colorectal adenocarcinoma cells
# Protocol: as §2, §3
# P. falciparum 3D7 = assay: In vitro antimalarial assay (PfLDH/diaphorase); type: cell-based; settings: Plasmodium falciparum, growth inhibition, 72 h, 0.0003 to 10 µM, read-out: EC50 Pf3D7
# Protocol: This assay was conducted using human red blood cells (RBC) following the guidelines of the ethics committee of Nagasaki University (permission no. 19). Human RBC was obtained from the Japanese Red Cross Society. The P. falciparum 3D7 strain was cultured in 2% hematocrit type O human RBC in RPMI-1640 medium (Gibco) supplemented with 23.8 mM sodium bicarbonate (Wako), 50 mg/L hypoxanthine (Wako), 25 mg/L gentamycin (Sigma), and 0.5% (w/v) AlbuMAX®® II (Gibco) under a 5% O2, 5% CO2, and 90% N2 atmosphere at 37 °C. Parasites were synchronized with 5% (w/v) D-sorbitol (Wako).
# Synchronized ring-stage parasites at 0.3% parasitemia and 2% hematocrit were cultured in a 384-well plate at 25 µL with test compounds at a final concentration in the range of 0.0003 to 10 µM with a fixed DMSO concentration of 0.4% (v/v). Parasite growth was monitored by the diaphorase-coupled P. falciparum lactate dehydrogenase (PfLDH) assay, as previously described. After 72 h, 70 µL of the assay solution (150 mM lithium L-lactate (Wako), 0.05 mg/mL 3-acetylpyridine adenine dinucleotide (Oriental Yeast Co., Ltd., Tokyo, Japan), 0.2 mg/mL nitro blue tetrazolium (Wako), 1 unit/mL diaphorase, and 100 mM Tris-HCl pH 8.0) were mixed with the parasite culture and incubated at room temperature for 40 min, and the generated nitro blue formazan was measured at 650 nm using a SpectraMax®® Paradigm®® Multi-Mode Microplate Reader. […] The EC50 was calculated using GraphPad Prism 8.0 software from the mean of quadruplets values.
structure (smiles),measurement,setting,value
N=C1Sc2cc(-c3cccc4ccccc34)ccc2C2=NCCCN12 [Compound 2],IC50,[1],> 22.7 µM
same,IC50,HsDHODH,> 4.5 µM
same,EC50 at 48 h,[2],> 10 µM
same,IC50,[3],13.9 ± 2.14 µM
same,IC50,PfDHODH,0.85 ± 0.05 µM
same,EC50 at 48 h,[4],> 10 µM
same,EC50 at 48 h,[5],> 10 µM
same,EC50,P. falciparum 3D7,> 10 µM
N=C1Sc2ccc(-c3ccccc3)cc2C2=NCCCN12 [Compound 9],IC50,[1],> 22.7 µM
same,IC50,HsDHODH,> 4.5 µM
same,EC50 at 48 h,[2],> 10 µM
same,IC50,[3],> 22.7 µM
same,IC50,PfDHODH,0.76 ± 0.08 µM
same,EC50 at 48 h,[4],> 10 µM
same,EC50 at 48 h,[5],> 10 µM
same,EC50,P. falciparum 3D7,> 10 µM
"N=C1Sc2cc3ccccc3cc2C2=NCCCN12 [Compound 11, 2,3,4,6-tetrahydro-7-thia-1,5-diazatetraphen-6-imine]",IC50,[1],> 22.7 µM
same,IC50,HsDHODH,> 4.5 µM
same,EC50 at 48 h,[2],> 10 µM
same,IC50,[3],> 22.7 µM
same,IC50,PfDHODH,6.42 ± 0.09 µM
same,EC50 at 48 h,[4],> 10 µM
same,EC50 at 48 h,[5],> 10 µM
same,EC50,P. falciparum 3D7,> 10 µM
N=C1Sc2cc(-c3ccc(C(N)=O)cc3)ccc2C2=NCCCN12 [Compound 16],IC50,[1],> 22.7 µM
same,IC50,HsDHODH,> 4.5 µM
same,EC50 at 48 h,[2],> 10 µM
same,IC50,[3],> 22.7 µM
same,IC50,PfDHODH,1.82 ± 0.08 µM
same,EC50 at 48 h,[4],> 10 µM
same,EC50 at 48 h,[5],> 10 µM
same,EC50,P. falciparum 3D7,> 10 µM
CC(=O)Nc1cccc(-c2ccc3c(c2)SC(=N)N2CCCN=C32)c1 [Compound 23],IC50,[1],> 22.7 µM
same,IC50,HsDHODH,> 4.5 µM
same,EC50 at 48 h,[2],> 10 µM
same,IC50,[3],> 22.7 µM
same,IC50,PfDHODH,1.85 ± 0.19 µM
same,EC50 at 48 h,[4],> 10 µM
same,EC50 at 48 h,[5],> 10 µM
same,EC50,P. falciparum 3D7,> 10 µM
CS(=O)(=O)Nc1cccc(-c2ccc3c(c2)SC(=N)N2CCCN=C32)c1 [Compound 24],IC50,[1],> 22.7 µM
same,IC50,HsDHODH,> 4.5 µM
same,EC50 at 48 h,[2],> 10 µM
same,IC50,[3],> 22.7 µM
same,IC50,PfDHODH,1.94 ± 0.07 µM
same,EC50 at 48 h,[4],> 10 µM
same,EC50 at 48 h,[5],> 10 µM
same,EC50,P. falciparum 3D7,> 10 µM
CC(=O)NCCCCCOc1cccc(-c2ccc3c(c2)SC(=N)N2CCCN=C32)c1 [Compound 26],IC50,[1],> 22.7 µM
same,IC50,HsDHODH,> 4.5 µM
same,EC50 at 48 h,[2],> 10 µM
same,IC50,[3],> 22.7 µM
same,IC50,PfDHODH,3.49 ± 0.21 µM
same,EC50 at 48 h,[4],> 10 µM
same,EC50 at 48 h,[5],> 10 µM
same,EC50,P. falciparum 3D7,> 10 µM
CC(=O)Nc1ccc2c(c1)SN1CCCN=C21 [Compound 28],IC50,[1],> 22.7 µM
same,IC50,HsDHODH,> 4.5 µM
same,EC50 at 48 h,[2],> 10 µM
same,IC50,[3],> 22.7 µM
same,IC50,PfDHODH,18.5 ± 0.4 µM
same,EC50 at 48 h,[4],> 10 µM
same,EC50 at 48 h,[5],> 10 µM
same,EC50,P. falciparum 3D7,> 10 µM
FC(F)(F)c1ccc2c(c1)SN1CCCN=C21 [Compound 29],IC50,[1],> 22.7 µM
same,IC50,HsDHODH,> 4.5 µM
same,EC50 at 48 h,[2],> 10 µM
same,IC50,[3],> 22.7 µM
same,IC50,PfDHODH,9.71 ± 0.29 µM
same,EC50 at 48 h,[4],> 10 µM
same,EC50 at 48 h,[5],> 10 µM
same,EC50,P. falciparum 3D7,> 10 µM
c1cncc(-c2ccc3c(c2)SN2CCCN=C32)c1 [Compound 35],IC50,[1],> 22.7 µM
same,IC50,HsDHODH,> 4.5 µM
same,EC50 at 48 h,[2],> 10 µM
same,IC50,[3],> 22.7 µM
same,IC50,PfDHODH,1.48 ± 0.07 µM
same,EC50 at 48 h,[4],> 10 µM
same,EC50 at 48 h,[5],> 10 µM
same,EC50,P. falciparum 3D7,> 10 µM
Oc1ccc(-c2ccc3c(c2)SN2CCCN=C32)cc1 [Compound 38],IC50,[1],> 22.7 µM
same,IC50,HsDHODH,> 4.5 µM
same,EC50 at 48 h,[2],> 10 µM
same,IC50,[3],> 22.7 µM
same,IC50,PfDHODH,1.81 ± 0.01 µM
same,EC50 at 48 h,[4],> 10 µM
same,EC50 at 48 h,[5],> 10 µM
same,EC50,P. falciparum 3D7,> 10 µM
Oc1cccc(-c2ccc3c(c2)SN2CCCN=C32)c1 [Compound 41],IC50,[1],> 22.7 µM
same,IC50,HsDHODH,> 4.5 µM
same,EC50 at 48 h,[2],> 10 µM
same,IC50,[3],> 22.7 µM
same,IC50,PfDHODH,1.44 ± 0.05 µM
same,EC50 at 48 h,[4],> 10 µM
same,EC50 at 48 h,[5],> 10 µM
same,EC50,P. falciparum 3D7,> 10 µM
